In US10336732B2, “1-heterocyclyl isochromanyl compounds and analogs for treating CNS disorders” (Sunovion Pharmaceuticals Inc., priority 2015, dated 2019):

How the values were obtained:
κ (KOP) = target: T1, κ (KOP) (Rattus norvegicus, UniProt P34975); assay: In vitro radioligand binding assay, κ (KOP), [3H]U 69593; conditions: rat recombinant (CHO cells)
T1 construct: expressed in transfected cells; host or cells: CHO cells
Protocol: Certain compounds were tested by in vitro binding assays using standard procedures. […] These receptors and assays are well known to those skilled in the art, as exemplified by the following: Abramovitz, M. et al. (2000), Biochem. Biophys. Acta., 1483: 285-293 (EP4, IP (PGI2)); Aharony, D. et al. (1993), Mol. Pharmacol., 44: 356-363 (NK2); Ardati, A. et al. (1997), Mol. Pharmacol., 51: 816-824 (NOP (ORL1)); Bignon, E. et al. (1999), J. Pharmacol. Exp. Ther. 289: 742-751 (CCK1 (CCKA)); Bloomquist, B. T. et al. (1998), Biochem. Biophys. Res. Commun., 243: 474-479 (GAL2); Brockhaus, M. et al. (1990), Proc. Natl. Acad. Sci. U.S.A., 87: 3127-3131 (TNF-α); Brown, G. B. (1986), J. Neurosci., 6: 2064-2070 (Na+ channel (site 2)); Buchan, K. W. et al. (1994), Brit. J. Pharmacol., 112: 1251-1257 (ETA); Cesura, A. M. et al. (1990), Mol. Pharmacol., 37: 358-366 (MAO-A); Choi, D. S. et al. (1994), FEBS Lett., 352: 393-399 (5-HT2B); Clark, A. F. et al. (1996), Invest. Ophtalmol. Vis. Sci., 37: 805-813 (GR); Couvineau, A. et al. (1985), Biochem. J., 231: 139-143 (VPAC1 (VIP1)); Dorje, F. et al. (1991), J. Pharmacol. Exp. Ther., 256: 727-733 (M1, M2, M3, M4); Ferry, G. et al. (2001), Eur. J. Pharmacol., 417: 77-89 (PPARγ); Fuchs, S. et al. (2001), Mol. Med., 7: 115-124 (ETB); Fuhlendorff, J. et al. (1990), Proc. Natl. Acad. Sci. U.S.A., 87: 182-186 (Y2); Ganapathy M E. et al. (1999), J. Pharmacol. Exp. Ther., 289: 251-260 (sigma (non-selective)); Gopalakrishnan, M. et al. (1996), J. Pharmacol. Exp. Ther., 276: 289-297 (N neuronal α4β2); Greengrass, P. and Bremner, R. (1979), Eur. J. Pharmacol., 55: 323-326 (α1 (non-selective)); Grandy, D. K. et al. (1989), Proc. Natl. Acad. Sci. U.S.A., 86: 9762-9766 (D25); Guard, S. et al. (1993), Eur. J. Pharmacol., 240:177-184 (BB (non-selective)); Heuillet, E. et al. (1993), J. Neurochem., 60: 868-876 (NK1, P2X); Hope, A. G. et al. (1996), Brit. […]

5-HT5a = target: T2, 5-HT5a (Homo sapiens, UniProt P47898); assay: In vitro radioligand binding assay, 5-HT5a, [3H]LSD; conditions: human recombinant (HEK-293 cells)
T2 construct: expressed in transfected cells; host or cells: HEK-293 cells
T2 sequence (P47898 whole entry): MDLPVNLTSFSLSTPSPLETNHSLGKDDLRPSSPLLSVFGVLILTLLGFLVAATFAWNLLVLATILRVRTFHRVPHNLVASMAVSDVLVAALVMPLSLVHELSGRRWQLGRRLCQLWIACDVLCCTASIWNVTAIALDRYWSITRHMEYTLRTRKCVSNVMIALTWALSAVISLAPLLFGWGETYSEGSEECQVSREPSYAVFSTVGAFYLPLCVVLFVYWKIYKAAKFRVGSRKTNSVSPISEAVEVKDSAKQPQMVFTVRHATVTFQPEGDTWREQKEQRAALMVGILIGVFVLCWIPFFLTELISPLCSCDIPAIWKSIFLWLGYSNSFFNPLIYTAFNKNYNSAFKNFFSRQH
Protocol: (§1) Certain compounds were tested by in vitro binding assays using standard procedures. […] These receptors and assays are well known to those skilled in the art, as exemplified by the following: Abramovitz, M. et al. (2000), Biochem. Biophys. Acta., 1483: 285-293 (EP4, IP (PGI2)); Aharony, D. et al. (1993), Mol. Pharmacol., 44: 356-363 (NK2); Ardati, A. et al. (1997), Mol. Pharmacol., 51: 816-824 (NOP (ORL1)); Bignon, E. et al. (1999), J. Pharmacol. Exp. Ther. 289: 742-751 (CCK1 (CCKA)); Bloomquist, B. T. et al. (1998), Biochem. Biophys. Res. Commun., 243: 474-479 (GAL2); Brockhaus, M. et al. (1990), Proc. Natl. Acad. Sci. U.S.A., 87: 3127-3131 (TNF-α); Brown, G. B. (1986), J. Neurosci., 6: 2064-2070 (Na+ channel (site 2)); Buchan, K. W. et al. (1994), Brit. J. Pharmacol., 112: 1251-1257 (ETA); Cesura, A. M. et al. (1990), Mol. Pharmacol., 37: 358-366 (MAO-A); Choi, D. S. et al. (1994), FEBS Lett., 352: 393-399 (5-HT2B); Clark, A. F. et al. (1996), Invest. Ophtalmol. Vis. […]

sigma (non-selective) = assay: In vitro radioligand binding assay, sigma (non-selective), [3H]DTG, Jurkat cells; conditions: Jurkat cells (endogenous)
Protocol: as §1

T1 sequence (P34975 whole entry): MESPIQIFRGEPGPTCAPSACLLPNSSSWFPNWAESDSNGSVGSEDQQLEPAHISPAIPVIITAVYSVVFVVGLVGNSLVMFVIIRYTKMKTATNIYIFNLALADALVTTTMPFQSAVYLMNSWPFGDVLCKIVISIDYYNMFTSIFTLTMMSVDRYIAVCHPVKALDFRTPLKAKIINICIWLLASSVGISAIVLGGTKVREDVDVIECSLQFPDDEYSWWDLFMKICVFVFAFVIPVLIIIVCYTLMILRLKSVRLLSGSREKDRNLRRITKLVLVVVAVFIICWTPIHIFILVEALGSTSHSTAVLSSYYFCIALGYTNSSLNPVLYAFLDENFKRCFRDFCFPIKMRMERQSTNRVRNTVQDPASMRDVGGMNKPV

| Compound | κ (KOP) percent inhibition of specific binding (κ (KOP)) [%] | 5HT5a percent inhibition of specific binding (5-HT5a) [%] | sigma percent inhibition of specific binding (sigma (non-selective)) |
| --- | --- | --- | --- |
| Clc1ccc2c(c1)[C@H]([C@@H]1CCCN1)OCC2 [Compound I-29, (S)-2-((R)-7-chloroisochroman-1-yl)pyrrolidine] | 89 |  |  |
| Fc1cccc2c1[C@H]([C@@H]1CCN1)OCC2 [Compound I-83, (S)-2-((R)-8-fluoroisochroman-1-yl)azetidine] |  | 58 |  |
| Fc1ccc2c(c1)CCO[C@H]2[C@@H]1CCN1 [Compound I-90, (S)-2-((R)-6-fluoroisochroman-1-yl)azetidine] |  |  | 63% |
| Fc1cccc2c1CCO[C@@H]2[C@@H]1CCN1 [Compound I-94, (S)-2-((S)-5-fluoroisochroman-1-yl)azetidine] | 67 |  | sigma (85%) |
| Fc1ccc2c(c1)[C@H]([C@@H]1CCCN1)OCC2 [Compound I-5, (2S)-2-((R)-7-fluoroisochroman-1-yl)pyrrolidine] | 71 |  |  |
